The target in test [1] is T1, Type I 5α-Reductase from Human Scalp (Homo sapiens, UniProt P18405).
T1 construct: Scalp punch biopsies from graft recipient sites were obtained from human hair transplant procedures; from tissue; host or cells: human scalp punch biopsies (hair transplant graft recipient sites), homogenate, 100,000×g pellet
T1 sequence (P18405 1-259): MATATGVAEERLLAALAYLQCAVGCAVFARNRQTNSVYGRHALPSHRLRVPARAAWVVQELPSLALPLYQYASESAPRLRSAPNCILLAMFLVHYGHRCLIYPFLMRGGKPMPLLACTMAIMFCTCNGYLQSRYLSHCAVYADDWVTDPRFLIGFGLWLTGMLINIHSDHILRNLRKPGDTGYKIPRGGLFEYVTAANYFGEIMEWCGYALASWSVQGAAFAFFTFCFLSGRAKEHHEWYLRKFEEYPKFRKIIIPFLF
As to the kind of experiment: Human Type I 5α-reductase assay (conversion of [3H]-testosterone to 5α-reduced metabolites). Type of test: biochemical. As to conditions: pH 7.5, 0.3 μM; 50 nM [3H]-testosterone, pH 7.5, 25°, 180 min; compared to control reaction mixtures; read-out: percent inhibition of Type I AR.

For test [2], the target named is T2, Type II 5α-Reductase from Human Prostate (Homo sapiens, UniProt P31213).
T2 construct: The same procedure as above was used for preparations using tissue from prostate surgery; from tissue; host or cells: human prostate tissue from surgery, homogenate, 100,000×g pellet
T2 sequence (P31213 1-254): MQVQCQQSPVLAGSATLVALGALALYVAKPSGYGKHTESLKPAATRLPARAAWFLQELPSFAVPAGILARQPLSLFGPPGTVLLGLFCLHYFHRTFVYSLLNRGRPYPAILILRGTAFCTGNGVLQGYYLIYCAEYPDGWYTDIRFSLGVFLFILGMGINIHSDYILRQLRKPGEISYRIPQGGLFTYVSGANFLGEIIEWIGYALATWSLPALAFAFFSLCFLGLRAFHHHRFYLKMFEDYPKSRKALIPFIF
As to the kind of experiment: Human Type II 5α-reductase assay (conversion of [3H]-testosterone to 5α-reduced metabolites). The format is biochemical. Conditions: sodium acetate pH 5.5, 25°, 30 min, compared to control reaction mixtures; for inhibition at 0.3 µM: pH 5.5, 0.3 μM, read-out: percent inhibition of Type II AR; for percent inhibition of Type II AR: 0.3 μM.

Structures are written as SMILES.

Regarding `CN1C(=O)CC[C@]2(C)c3ccc(-c4cccc([N+](=O)[O-])c4)cc3CC[C@@H]12` [Example 86, (+)-(4aR)-(10bR)-4-methyl-8-(3-nitrophenyl)-10b-methyl-1,2,3,4,4a,5,6,10b-octahydrobenzo[f]quinolin-3-one], the inhibition – broadly, the relative decrease from the control value, in per cent – at 0.3 µM in test [1] was determined as 66%; in test [2], 51%.
Regarding `CN1C(=O)CC[C@]2(C)c3ccc(-c4cc(C(F)(F)F)cc(C(F)(F)F)c4)cc3CC[C@@H]12` [Example 87, (+)-(4aR)-(10bR)-4-methyl-8-(3,5-his [trifluoromethyl]phenyl)-10b-methyl-1,2,3,4,4a,5,6,10b-octahydrobenzo[f]quinolin-3-one], the inhibition at 0.3 µM came to 83% in test [1] and 28% in test [2].
For `CN1C(=O)CC[C@]2(C)c3ccc(-c4ccc(F)c(Cl)c4)cc3CC[C@@H]12` [Example 88, (+)-(4aR)-(10bR)-4-methyl-8-(3-chloro-4-fluorophenyl)-10b-methyl-1,2,3,4,4a,5,6,10b-octahydrobenzo[f]quinolin-3-one], the results for the inhibition at 0.3 µM in test [1] and in test [2] were 96% and 43%, respectively.
As for `CN(C)c1cccc2c(S(=O)(=O)Nc3cccc(-c4ccc5c(c4)CC[C@H]4N(C)C(=O)CC[C@]54C)c3)cccc12` [Example 91, (+)-(4aR)-(10bR)-4-methyl-8-[3-([5-dimethylamino-1-naphthyl]sulfonylamino)phenyl]-10b-methyl-1,2,3,4,4a,5,6,10b-octahydrobenzo[f]quinolin-3-one], the inhibition at 0.3 µM worked out at 87% in test [1] and 32% in test [2].
With `CN1C(=O)CC[C@]2(C)c3ccc(Sc4ccc(Cl)cc4)cc3CC[C@@H]12` [Example 95, (+)-(4aR)-(10bR)-4,10b-dimethyl-8-(4-chlorophenylthio)-1,2,3,4,-4a,5,6,10b-octahydrobenzo[f]quinolin-3-one], the inhibition at 0.3 µM in test [1] worked out at 95%; in test [2], 35%.
The like results for `Cc1ccc(Sc2ccc3c(c2)CC[C@H]2N(C)C(=O)CC[C@]32C)cc1` [Example 96, (+)-(4aR)-(10bR)-4,10b-dimethyl-8-(4-methylphenylthio)-1,2,3,4,4a,5,6,10b-octahydrobenzo[f]quinolin-3-one] were, in that order, 89% and 52%.
Consider `CN1C(=O)CC[C@]2(C)c3ccc(Sc4ccc5ccccc5c4)cc3CC[C@@H]12` [Example 98, (+)-(4aR)-(10bR)-4,10b-dimethyl-8-(2-naphthylthio)-1,2,3,4,-4a,5,6,10b-octahydrobenzo[f]quinolin-3-one], for which the inhibition at 0.3 µM in test [1] was found to be 76%. Besides, in test [2], the “percent inhibition of Type II AR” value worked out at 44% and the inhibition at 0.3 µM was determined as 61%.
Taken in the same sequence, the figures for `CN1C(=O)CC[C@]2(C)c3ccc(Sc4cccc(Cl)c4)cc3CC[C@@H]12` [Example 100, (+)-(4aR)-(10bR)-4,10b-dimethyl-8-(3-chlorophenylthio)-1,2,3,4,-4a,5,6,10b-octahydrobenzo[f]quinolin-3-one] were 96%, 34% and 51%.
For `Cc1ccccc1Sc1ccc2c(c1)CC[C@H]1N(C)C(=O)CC[C@]21C` [Example 101, (+)-(4aR)-(10bR)-4,10b-dimethyl-8-(2-methylphenylthio)-1,2,3,4,-4a,5,6,10b-octahydrobenzo[f]quinolin-3-one], the inhibition at 0.3 µM was 75% in test [1] and 43% in test [2].
Regarding `Cc1cccc(Sc2ccc3c(c2)CC[C@H]2N(C)C(=O)CC[C@]32C)c1` [Example 102, (+)-(4aR)-(10bR)-4,10b-dimethyl-8-(3-methylphenylthio)-1,2,3,4,-4a,5,6,10b-octahydrobenzo[f]quinolin-3-one], the inhibition at 0.3 µM in test [1] turned out to be 92%; in test [2], 61%.
Taken in the same sequence, the figures for `CN1C(=O)CC[C@]2(C)c3ccc(Sc4cccc5ccccc45)cc3CC[C@@H]12` [Example 103, (+)-(4aR)-(10bR)-4,10b-dimethyl-8-(1-naphthylthio)-1,2,3,4, -4a,5,6,10b-octahydrobenzo[f]quinolin-3-one] were 81% and 58%.
`COc1ccccc1Sc1ccc2c(c1)CC[C@H]1N(C)C(=O)CC[C@]21C` [Example 104, (+)-(4aR)-(10bR)-4,10b-dimethyl-8-(2-methoxyphenylthio)-1,2,3,4,-4a,5,6,10b-octahydrobenzo[f]quinolin-3-one]: the inhibition at 0.3 µM in test [1] turned out to be 89%; in test [2], 41%.
For the compound `COc1ccc(Sc2ccc3c(c2)CC[C@H]2N(C)C(=O)CC[C@]32C)cc1` [Example 105, (+)-(4aR)-(10bR)-4,10b-dimethyl-8-(4-methoxyphenylthio)-1,2,3,4,-4a,5,6,10b-octahydrobenzo[f]quinolin-3-one], the inhibition at 0.3 µM in test [1] was 92%; in test [2] it was 33%.
As to `CN1C(=O)CC[C@]2(C)c3ccc(Sc4cnc5ccccc5c4)cc3CC[C@@H]12` [Example 106, (4aR)-(10bR)-4,10b-dimethyl-8-(3-quinolinylthio)-1,2,3,4,4a,5,6,10b-octahydrobenzo[f]quinolin-3-one], the inhibition at 0.3 µM in test [1] was 73%; in test [2] it was 39%.
Taken in the same sequence, the figures for `CN1C(=O)CC[C@]2(C)c3ccc(Sc4ccc5ccccc5n4)cc3CC[C@@H]12` [Example 107, (+)-(4aR)-(10bR)-4,10b-dimethyl-8-(2-quinolinylthio)-1,2,3,4,-4a,5,6,10b-octahydrobenzo[f]quinolin-3-one] were 80% and 83%.
Turning to `CN1C(=O)CC[C@]2(C)c3ccc(Sc4ccccc4F)cc3CC[C@@H]12` [Example 108, (+)-(4aR)-(10bR)-4,10b-dimethyl-8-(2-fluorophenylthio)-1,2,3,4,-4a,5,6,10b-octahydrobenzo[f]quinolin-3-one], the inhibition at 0.3 µM turned out to be 100% in test [1] and 29% in test [2].
Taken in the same sequence, the figures for `CN1C(=O)CC[C@]2(C)c3ccc(Sc4cccc(F)c4)cc3CC[C@@H]12` [Example 109, (+)-(4aR)-(10bR)-4,10b-dimethyl-8-(3-fluorophenylthio)-1,2,3,4,4a,5,6,10b-octahydrobenzo[f]quinolin-3-one] were 97% and 25%.
The like results for `CN1C(=O)CC[C@]2(C)c3ccc(Sc4cccc5cccnc45)cc3CC[C@@H]12` [Example 110, (4aR)-(10bR)-4,10b-dimethyl-8-(8-quinolinylthio)-1,2,3,4,4a,5,6,10b-octahydrobenzo[f]quinolin-3-one] were, in that order, 97% and 73%.
The like results for `CN1C(=O)CC[C@]2(C)c3ccc(Sc4ccccn4)cc3CC[C@@H]12` [Example 111, (+)-(4aR)-(10bR)-4,10b-dimethyl-8-(2-pyridinylthio)-1,2,3,4,-4a,5,6,10b-octahydrobenzo[f]quinolin-3-one] were, in that order, 44% and 38%.
For `CN1C(=O)CC[C@]2(C)c3ccc(Sc4nc5ccccc5s4)cc3CC[C@@H]12` [Example 112, (4aR)-(10bR)-4,10b-dimethyl-8-(2-benzothiazolylthio)-1,2,3,4,4a,5,6,10b-octahydrobenzo[f]quinolin-3-one], the inhibition at 0.3 µM in test [1] came to 64%; in test [2], 90%. Further, the “percent inhibition of Type II AR” value in test [2] came to 92%.
In the case of `CN1C(=O)CC[C@]2(C)c3ccc(Sc4nccc5ccccc45)cc3CC[C@@H]12` [Example 113, (4aR)-(10bR)-4,10b-dimethyl-8-(1-isoquinolinylthio)-1,2,3,4,4a,5,6,10b-octahydrobenzo[f]quinolin-3-one], the inhibition at 0.3 µM was found to be 70% in test [1] and 51% in test [2].
Regarding `CN1C(=O)CC[C@]2(C)c3ccc(Sc4cncc5ccccc45)cc3CC[C@@H]12` [Example 114, (4aR)-(10bR)-4,10b-dimethyl-8-(4-isoquinolinylthio)-1,2,3,4,4a,5,6,10b-octahydrobenzo[f]quinolin-3-one], the inhibition at 0.3 µM amounted to 55% in test [1] and 47% in test [2].
The like results for `CN1C(=O)CC[C@]2(C)c3ccc(Sc4ccncc4)cc3CC[C@@H]12` [Example 115, (+)-(4aR)-(10bR)-4,10b-dimethyl-8-(4-pyridinylthio)-1,2,3,4,4a,5,6,10b-octahydrobenzo[f]quinolin-3-one] were, in that order, 31% and 20%.
The like results for `CN1C(=O)C=C[C@]2(C)c3ccc(-c4cccc5ccccc45)cc3CC[C@@H]12` [Example 117, (+)-(4aR)-(10bR)-4-methyl-8-(1-naphthyl)-10b-methyl-3,4,4a,5,6,10b-hexahydrobenzo[f]quinolin-3-one] were, in that order, 46% and 49%.

Values taken from patent US5622962A, “5α-reductase inhibitors” (priority 1995, dated 1997).
